Assay results as given in patent US20160202242A1, “CELL DEATH-INDUCING AGENT, CELL GROWTH-INHIBITING AGENT, AND PHARMACEUTICAL COMPOSITION FOR TREATMENT OF DISEASE CAUSED BY ABNORMAL CELL GROWTH” (Nitto Denko Corporation, priority 2014, published 2016).
d = 2'-deoxy (DNA); r = 2'-OH (RNA)

What was measured:
Format in all cases: cell-based, human
[1] = system: A549 cells, MIA PaCa-2 cells, PANC-1 cells, and HCT116 cells; experiment: Phase difference images of cells after knockdown three times; details: knocked down three times; 7 days after inoculation
Method: (§1) As examples of cancer cells, 1×10^5 M7609 cells (human colorectal cancer cells having KRAS mutation) and PANC-1 cells (human pancreatic cancer cells having KRAS mutation) were inoculated to 6 cm Petri dishes and cultured for 18 hours in Roswell Park Memorial Institute 1640 (RPMI 1640, Sigma-Aldrich Corp.) supplemented with 10% fetal bovine serum (FBS) and 0.5% L-glutamine. The culture conditions were 37° C. and 5% CO2, unless otherwise specified. […]
First, for the PANC-1 cells, the MIA PaCa-2 cells, or the HCT116 cells, GST-π siRNA and P21 siRNA each at a final concentration of 25 nM, or GST-π siRNA or P21 siRNA at a final concentration of 25 nM (all added with control siRNA at a final concentration of 25 nM) were added to each of the Petri dishes, while for the A549 cells, GST-π siRNA and P21 siRNA each at a final concentration of 50 nM, or GST-π siRNA or P21 siRNA at a final concentration of 50 nM (added with control siRNA at a final concentration of 50 nM) were added to each of the Petri dishes. […] Seven days after the cell inoculation, the cells were dissociated and collected from the Petri dish by trypsin treatment, and the number of cells was counted. […]

P21 mRNA [2] = experiment: P21 mRNA level by quantitative PCR 1 day after siRNA transfection; details: PANC-1, MIA PaCa-2, or A549 cells, GST-π siRNA 50 nM or 100 nM, vs control siRNA
Method: as §1, with “specified. Moreover, as an example of cancer cells, 0.5×10^5 A549 cells (human lung cancer cells having KRAS mutation) were inoculated to a 6 cm Petri dish and cultured for 18 hours in a Dulbecco's modified Eagle's medium (DMEM, Sigma-Aldrich Corp.) supplemented with 10% FBS and 1% L-glutamine.” for “specified.”
GST-π siRNA and P21 siRNA each at a final concentration of 50 nM, GST-π siRNA or P21 siRNA at a final concentration of 50 nM (both added with control siRNA at a final concentration of 50 nM), or GST-π siRNA at a final concentration of 100 nM (without the addition of control siRNA) were added to each of the Petri dishes containing the PANC-1, MIA PaCa-2, or A549 cells. […] After culture for 1 day without the replacement of the medium, the GST-π mRNA level and the P21 mRNA level were quantified by quantitative PCR using 7300 Real Time PCR System (Applied Biosystems, Inc.).

[3] = system: PANC-1, MIA PaCa-2, or A549 cells; experiment: Number of cells counted after 5 days of culture, single siRNA transfection; details: siRNA 50 nM plus control siRNA 50 nM
Method: as §1, with “specified. Moreover, as an example of cancer cells, 0.5×10^5 A549 cells (human lung cancer cells having KRAS mutation) were inoculated to a 6 cm Petri dish and cultured for 18 hours in a Dulbecco's modified Eagle's medium (DMEM, Sigma-Aldrich Corp.) supplemented with 10% FBS and 1% L-glutamine. Furthermore, as an example of cancer cells, 1×10^5 MIA PaCa-2 cells (human pancreatic cancer cell having KRAS mutation) were inoculated to a 6 cm Petri dish and cultured for 18 hours in DMEM supplemented with 10% FBS and 1% L-glutamine.” for “specified.”
Meanwhile, the influence of GST-π siRNA and/or P21 siRNA on the number of cells was tested. […] After culture for 5 days without the replacement of the medium, the cells were dissociated and collected from the Petri dish by trypsin treatment, and the number of cells was counted.

M7609 cells = experiment: Senescence beta-galactosidase staining 13 days after inoculation, GST-π knocked down three times; details: GST-π siRNA 30 nM added three times
Method: (§2) As examples of cancer cells, 1×10^5 M7609 cells (human colorectal cancer cells having KRAS mutation) and PANC-1 cells (human pancreatic cancer cells having KRAS mutation) were inoculated to 6 cm Petri dishes and cultured for 18 hours in Roswell Park Memorial Institute 1640 (RPMI 1640, Sigma-Aldrich Corp.) supplemented with 10% fetal bovine serum (FBS) and 0.5% L-glutamine. The culture conditions were 37° C. and 5% CO2, unless otherwise specified. Moreover, as an example of cancer cells, 0.5×10^5 A549 cells (human lung cancer cells having KRAS mutation) were inoculated to a 6 cm Petri dish and cultured for 18 hours in a Dulbecco's modified Eagle's medium (DMEM, Sigma-Aldrich Corp.) supplemented with 10% FBS and 1% L-glutamine. Furthermore, as an example of cancer cells, 1×10^5 MIA PaCa-2 cells (human pancreatic cancer cell having KRAS mutation) were inoculated to a 6 cm Petri dish and cultured for 18 hours in DMEM supplemented with 10% FBS and 1% L-glutamine. Furthermore, as an example of cancer cells, 0.5×10^5 HCT116 cells (human colorectal cancer cells having KRAS mutation) were inoculated to a 6 cm Petri dish and cultured for 18 hours in McCoy's 5A Medium (McCoy, Sigma-Aldrich Corp.) supplemented with 10% FBS and 0.5% L-glutamine.
Whether the cell senescence as shown in FIGS. 6 to 9 was could be induced by knocking down GST-π was tested using the M7609 cells. […]

P21 mRNA [4] = experiment: P21 mRNA level quantified every day to the 4th day after siRNA addition; details: A549 or MIA PaCa-2 cells, siRNA 50 nM
Method: as §2, with “Furthermore, as an example of cancer cells, 0.5×10^5 HCT116 cells (human colorectal cancer cells having KRAS mutation) were inoculated to a 6 cm Petri dish and cultured for 18 hours in McCoy's 5A Medium (McCoy, Sigma-Aldrich Corp.) supplemented with 10% FBS and 0.5% L-glutamine.” left out
Moreover, as for the case where GST-π siRNA or control siRNA at a final concentration of 50 nM was added to each of the Petri dishes containing the A549 cells or the MIA PaCa-2 cells, the P21 mRNA level was similarly quantified every day from the day of addition of GST-π siRNA or control siRNA to the 4th day.

## GST-π siRNA: siRNA against GST-π; sense GGGAGGCAAGACCUUCAUUtt (SEQ ID NO: 31), antisense AAUGAAGGUCUUGCCUCCCtg (SEQ ID NO: 32) (sense GGGAGGCAAGACCUUCAUUTT; antisense AAUGAAGGUCUUGCCUCCCTG; sugars from the 5' end r19 d2, backbone not given here)
[1]
  cell morphology / cell senescence-like phenotype in phase difference image: became flat and large cells
P21 mRNA [2]
  amount of P21 mRNA: increased
[3]
  number of cells, each siRNA alone: the number of cells cannot be decreased with respect to the number of inoculated cells, though cell growth is inhibited
M7609 cells
  cell senescence (flat and large cells, blue color development by galactosidase staining): cell senescence was evoked
P21 mRNA [4]
  expression level of P21 mRNA over time: increased over time

## P21 siRNA: siRNA against P21; sense UCCUAAGAGUGCUGGGCAUtt (SEQ ID NO: 33), antisense AUGCCCAGCACUCUUAGGAtt (SEQ ID NO: 34) (sense UCCUAAGAGUGCUGGGCAUTT; antisense AUGCCCAGCACUCUUAGGATT; sugars from the 5' end r19 d2, backbone not given here)
[3]
  number of cells, each siRNA alone: the number of cells cannot be decreased with respect to the number of inoculated cells, though cell growth is inhibited
